The assay concerns H. influenza Hi4 efflux pump KO. Description: Antibacterial activity assay (MIC), H. influenza Hi4. In kind it is cell-based.

Converted amounts (≈) assume the structure as drawn.

The molecule `COC[C@@H]1[C@@H](O)[C@@H]2[C@H]3C=C[C@@H]4[C@@H](COC)C(=O)O[C@H]([C@H](O)COC)[C@H](C)/C=C(\C)[C@@]24O[C@H]3[C@@H]1OC(=O)c1cc(C)c[nH]1` [Compound 12, 8-O-4-Methyl-1H-pyrrole-2′-carbonylbranimycin] had an MIC of 4 µg/mL (≈ 6.78 µM). The molecule `COC[C@@H]1[C@@H](O)[C@@H]2[C@H]3C=C[C@@H]4[C@@H](COC)C(=O)O[C@H]([C@H](O)COC)[C@H](C)/C=C(\C)[C@@]24O[C@H]3[C@@H]1OC(=O)c1ccon1` [Compound 13, 8-O-Isoxazole-3′-carbonylbranimycin] returned an MIC of 16 µg/mL (≈ 27.7 µM). `COC[C@@H]1[C@@H](O)[C@@H]2[C@H]3C=C[C@@H]4[C@@H](COC)C(=O)O[C@H]([C@H](O)COC)[C@H](C)/C=C(\C)[C@@]24O[C@H]3[C@@H]1OC(=O)c1cnco1` [Compound 14, 8-O-Oxazole-5′ carbonylbranimycin]: the MIC came out at 64 µg/mL (≈ 111 µM). To `COC[C@H]1[C@@H](O)[C@@H]2O[C@@]34/C(C)=C/[C@@H](C)[C@@H]([C@H](O)COC)OC(=O)[C@H](COC)[C@H]3CC[C@@H]2[C@H]4[C@@H]1O` [Compound 15, 4,5-Dihydro-branimycin] belongs 64 µg/mL (≈ 132 µM); to `COC[C@@H]1[C@@H](O)[C@@H]2[C@H]3CC[C@@H]4[C@@H](COC)C(=O)O[C@H]([C@H](O)COC)[C@H](C)/C=C(\C)[C@@]24O[C@H]3[C@@H]1OC(=O)c1ccc[nH]1` [Compound 16, 4,5-Dihydro-8-O-1H-pyrrole-2′-carbonylbranimycin], 16 µg/mL (≈ 27.7 µM); to `COCC[C@H]1OC(=O)[C@H](COC)[C@H]2C=C[C@H]3[C@H]4O[C@]2(/C(C)=C/[C@H]1C)[C@@H]3[C@H](O)[C@@H](COC)[C@H]4O` [Compound 17, 17-Deoxybranimycin], 8 µg/mL (≈ 17.1 µM). To `COC[C@@H]1[C@@H](O)[C@@H]2[C@H]3C=C[C@@H]4[C@@H](COC)C(=O)O[C@H]([C@@H](COC)OC)[C@H](C)/C=C(\C)[C@@]24O[C@H]3[C@@H]1OC(=O)c1ccc[nH]1` [Compound 18, 17-O-Methyl-8-O-1H-pyrrole-2′-carbonylbranimycin] belongs 4 µg/mL (≈ 6.78 µM); to `COC[C@@H]1[C@@H](O)[C@@H]2[C@H]3C=C[C@@H]4[C@@H](COC)C(=O)O[C@H]([C@H](O)COC)[C@H](C)/C=C(\C)[C@@]24O[C@H]3[C@@H]1OC(=O)c1cc(F)c[nH]1` [Compound 19, 8-O-4-Fluoro-1H-pyrrole-2′-carbonylbranimycin], 0.25 µg/mL (≈ 0.421 µM); to `COCC(=O)[C@H]1OC(=O)[C@H](COC)[C@H]2C=C[C@H]3[C@H]4O[C@]2(/C(C)=C/[C@H]1C)[C@@H]3[C@H](O)[C@@H](COC)[C@H]4OC(=O)c1ccc[nH]1` [Compound 20, 18-Deoxy-18-oxo-8-O-1H-pyrrole-2′-carbonylbranimycin], 32 µg/mL (≈ 55.8 µM).

For `COC[C@@H]1[C@@H](O)[C@@H]2[C@H]3C=C[C@@H]4[C@@H](COC)C(=O)OC[C@H](C)/C=C(\C)[C@@]24O[C@H]3[C@@H]1OC(=O)c1ccc[nH]1` [Compound 22, 17,18-Dinor-8-O-1H-pyrrole-2′-carbonybranimycin], the MIC was 32 µg/mL (≈ 63.8 µM). In the case of `COC[C@@H](O)[C@H]1OC(=O)[C@H](COC)[C@H]2C=C[C@H]3[C@H]4O[C@]2(/C(C)=C/[C@H]1C)[C@@H]3[C@H](O)[C@@H](C)[C@H]4OC(=O)c1cc(F)c[nH]1` [Compound 23, 8-O-4-Fluoro-1H-pyrrole-2′-carbonylbaleomycin], the MIC is 0.5 µg/mL (≈ 0.887 µM). To `COC[C@@H]1[C@@H](O)[C@@H]2[C@H]3C=C[C@@H]4[C@@H](COC)C(=O)O[C@H](C(C)(O)COC)[C@H](C)/C=C(\C)[C@@]24O[C@H]3[C@@H]1OC(=O)c1ccc[nH]1` (stereo partly drawn) [Compound 24, 17-Methyl-8-O-1H-pyrrole-2′-carbonylbranimycin] belongs 8 µg/mL (≈ 13.6 µM). Molecule `COCC(=NO)[C@H]1OC(=O)[C@H](COC)[C@H]2C=C[C@H]3[C@H]4O[C@]2(/C(C)=C/[C@H]1C)[C@@H]3[C@H](O)[C@@H](COC)[C@H]4OC(=O)c1ccc[nH]1` [Compound 25, 18-Deoxy-18-oximino-8-O-1H-pyrrole-2′-carbonylbranimycin] had an MIC of 1 µg/mL (≈ 1.7 µM). The molecule `COC[C@@H]1[C@@H](O)[C@@H]2[C@H]3C=C[C@@H]4[C@@H](COC)C(=O)O[C@H]([C@H](O)COC)[C@H](C)/C=C(\C)[C@@]24O[C@H]3[C@@H]1OC(=O)c1cc(C#N)c[nH]1` [Compound 26, 8-O-4-Cyano-1H-pyrrole-2′-carbonylbranimycin] gave an MIC of 8 µg/mL (≈ 13.3 µM). `COC/C(=N\OC)[C@H]1OC(=O)[C@H](COC)[C@H]2C=C[C@H]3[C@H]4O[C@]2(/C(C)=C/[C@H]1C)[C@@H]3[C@H](O)[C@@H](COC)[C@H]4OC(=O)c1ccc[nH]1` [Compound 27, 18-Deoxy-18-methoximino-8-O-1H-pyrrole-2′-carbonylbranimycin] showed an MIC of 8 µg/mL (≈ 13.3 µM). Take `COC[C@@H]1[C@@H](O)[C@@H]2[C@H]3C=C[C@@H]4[C@@H](COC)C(=O)O[C@H]([C@H](O)COC)[C@H](C)/C=C(\C)[C@@]24O[C@H]3[C@@H]1OC(=O)c1cc(Cl)c[nH]1` [Compound 28, 8-O-4-Chloro-1H-pyrrole-2′-carbonylbranimycin]: the MIC turned out to be 4 µg/mL (≈ 6.56 µM). `COCC(=NOC(C)=O)[C@H]1OC(=O)[C@H](COC)[C@H]2C=C[C@H]3[C@H]4O[C@]2(/C(C)=C/[C@H]1C)[C@@H]3[C@H](O)[C@@H](COC)[C@H]4OC(=O)c1ccc[nH]1` [Compound 29, 18-Acetylimino-18-deoxy-8-O-1H-pyrrole-2′-carbonylbranimycin] had an MIC of 2 µg/mL (≈ 3.17 µM). Molecule `COC[C@@H](O)[C@H]1OC(=O)[C@H](COC)[C@H]2C=C[C@H]3[C@H]4O[C@]2(/C(C)=C/[C@H]1C)[C@@H]3[C@H](O)[C@@H](C)[C@H]4OC(=O)c1cc(Cl)c[nH]1` [Compound 30, 8-O-4-Chloro-1H-pyrrole-2′-carbonylbaleomycin] showed an MIC of 4 µg/mL (≈ 6.9 µM). `COC[C@@H]1[C@@H](O)[C@@H]2[C@H]3C=C[C@@H]4[C@@H](COC)C(=O)O[C@H]([C@H](O)COC)[C@H](C)/C=C(\C)[C@@]24O[C@H]3[C@@H]1OC(=O)c1cc(Br)c[nH]1` [Compound 32, 8-O-4-Bromo-1H-pyrrole-2′-carbonylbranimycin] had an MIC of 4 µg/mL (≈ 6.11 µM). In the case of `COC[C@@H]1[C@@H](O)[C@@H]2[C@H]3C=C[C@@H]4[C@@H](COC)C(=O)O[C@H]([C@H](O)COC)[C@H](C)/C=C(\C)[C@@]24O[C@H]3[C@@H]1OC(=O)c1cc(Br)c(Br)[nH]1` [Compound 34, 8-O-4,5-Dibromo-1H-pyrrole-2′-carbonylbranimycin], the MIC stood at 8 µg/mL (≈ 10.9 µM). With `COC[C@@H]1[C@@H](O)[C@@H]2[C@H]3C=C[C@@H]4[C@@H](COC)C(=O)O[C@H]([C@H](O)COC)[C@H](C)/C=C(\C)[C@@]24O[C@H]3[C@@H]1OC(=O)c1cc(Br)c(Br)o1` [Compound 36, 8-O-4,5-Dibromofurane-2′-carbonylbranimycin], the MIC came out at 32 µg/mL (≈ 43.6 µM). For the molecule `COC[C@@H]1[C@@H](O)[C@@H]2[C@H]3C=C[C@@H]4[C@@H](COC)C(=O)O[C@H]([C@H](O)COC)[C@H](C)/C=C(\C)[C@@]24O[C@H]3[C@@H]1OC(=O)c1cc(Br)c(F)[nH]1` [Compound 37, 8-O-4-Bromo-5-Fluoro-1H-pyrrole-2′-carbonylbranimycin], the MIC is 16 µg/mL (≈ 23.8 µM). `COC[C@@H]1[C@@H](O)[C@@H]2[C@H]3C=C[C@@H]4[C@@H](COC)C(=O)O[C@H]([C@H](O)COC)[C@H](C)/C=C(\C)[C@@]24O[C@H]3[C@@H]1OC(=O)c1cc(F)c(F)[nH]1` [Compound 38, 8-O-4,5-Difluoro-1H-pyrrole-2′-carbonylbranimycin] showed an MIC of 16 µg/mL (≈ 26.2 µM). Consider `COC[C@@H]1[C@@H](O)[C@@H]2[C@H]3C=C[C@@H]4[C@@H](COC)C(=O)O[C@H]([C@H](O)COC)[C@H](C)/C=C(\C)[C@@]24O[C@H]3[C@@H]1OC(=O)c1cc(C)n[nH]1` [Compound 39, 8-O-5-Methyl-1H-Pyrazole-3′-carbonylbranimycin], for which the MIC is above 64 µg/mL. `COCC(=NO)[C@H]1OC(=O)[C@H](COC)[C@H]2C=C[C@H]3[C@H]4O[C@]2(/C(C)=C/[C@H]1C)[C@@H]3[C@H](O)[C@@H](COC)[C@H]4OC(=O)c1cc(F)c[nH]1` [Compound 40, 18-Deoxy-18-oximino-8-O-4-Fluoro-1H-pyrrole-2′-carbonylbranimycin] showed an MIC of 2 µg/mL (≈ 3.3 µM).

In the case of `COCC(=NO)[C@H]1OC(=O)[C@H](COC)[C@H]2C=C[C@H]3[C@H]4O[C@]2(/C(C)=C/[C@H]1C)[C@@H]3[C@H](O)[C@@H](COC)[C@H]4OC(=O)c1cc(Cl)c[nH]1` [Compound 41, 18-Deoxy-18-oximino-8-O-4-Chloro-1H-pyrrole-2′-carbonylbranimycin], the MIC came out at 8 µg/mL (≈ 12.8 µM). The result for `COCC(=NOC(C)=O)[C@H]1OC(=O)[C@H](COC)[C@H]2C=C[C@H]3[C@H]4O[C@]2(/C(C)=C/[C@H]1C)[C@@H]3[C@H](O)[C@@H](COC)[C@H]4OC(=O)c1cc(Cl)c[nH]1` [Compound 42, 18-Acetylimino-18-deoxy-8-O-4-Chloro-1H-pyrrole-2′-carbonylbranimycin] reads 4 µg/mL (≈ 6.01 µM). With `CO[C@H]1C[C@H]2C=C[C@H]3[C@H]4O[C@]2(/C(C)=C/[C@@H](C)[C@@H]([C@@H](C)O)OC1=O)[C@@H]3[C@H](O)[C@@H](C)[C@H]4OC(=O)c1ccc[nH]1` [Nargenicin A1, reference compound], the MIC came to 0.5 µg/mL (≈ 0.97 µM).

With `COC[C@@H]1[C@@H](O)[C@@H]2[C@H]3C=C[C@@H]4C[C@H](O)C(=O)O[C@H]([C@H](O)COC)[C@H](C)/C=C(\C)[C@@]24O[C@H]3[C@@H]1OC(=O)c1ccc[nH]1` [Nargenicin B1, reference compound], the MIC was 8 µg/mL (≈ 14.2 µM).

For `CO[C@H]1C[C@H]2C=C[C@H]3[C@H]4O[C@]2(/C(C)=C/[C@@H](C)[C@@H]([C@@H](C)O)OC1=O)[C@@H]3[C@H](O)[C@@H](C)[C@H]4O` [Nodusmicin, reference compound], the MIC was determined as 2 µg/mL (≈ 4.73 µM).

These data come from US20160297830A1, “NOVEL COMPOUNDS USEFUL FOR THE TREATMENT OF BACTERIAL INFECTIOUS DISEASES” (GALAPAGOS NV, priority 2013, published 2016).
